± gives the expanded uncertainty stated by the source.
Legend:
[1] = refractive index (Na D-line) (dimensionless); settings: 298.15 K; 101.33 kPa; Liquid; Standard Abbe refractometry
[2] = 298.15 K; 101.33 kPa; Liquid; Pycnometric method

refractive index [1] | mass density [2] | SMILES
1.33299 ± 0.012 | – | O [water]
1.43159 ± 0.012 | – | OCCO [1,2-ethanediol]
1.43262 ± 0.012 | 1032.7 ± 0.4 kg/m3 | CC(O)CO (centres undefined) [1,2-propanediol]

From the NIST ThermoML archive (doi:10.1021/acs.jced.8b01128)
